# Assay results taken from patent US4336250A, “Lactation improvement method” (Eli Lilly and Company, priority 1981, dated 1982).
# Tests used:
# Ruminal VFA = assay: In vivo ruminal VFA test in fistulated non-lactating lambs; parameters: species or system sheep; conditions: 15 g/ton in feed
# Method: Two groups of fistulated lambs are allowed slightly more than their normal feed ration for 17 days. Test compound is administered to one group in the feed on a g/ton basis.
# The rumen fluids of both groups of animals are sampled on days 3, 7, 10, 14 and 17 of the treatment period.
# The fermentation of the ruminal samples is halted by addition of meta-phosphoric acid. Each sample is diluted, centrifuged at 2000×gravity for 10 minutes; the supernatants are analyzed for volatile fatty acids via the gas chromatographic method of E. S. Erwin, G. J. Marco and E. M. Emery in J. Dairy Sci., 44, 1768 […]. Molar percentages of ruminal volatile fatty acids are calculated, and the effect is measured as a comparison of the molar percentages of propionic acid and butyric acid in treated animals to those in contemporary controls. The results of the test are presented below in Tables II and III.
# [1] = tested on: Ruminal VFA (rumen fluid); assay: In vitro rumen fluid fermentation test, ratio of VFA in treated to control flasks; parameters: species or system steer; conditions: 16 hours at 38° C
# Excerpt: As previously noted, a preferred method for improving milk production in lactating ruminants comprises the oral administration of the virginiamycin type antibiotic A-2315. […] Rumen fluid is obtained from a steer with a surgically-installed fistula opening into the rumen. The steer is maintained on a high-grain ration, the composition of which follows: A sample of rumen fluid is strained through four layers of cheesecloth, and the filtrate is collected. The particulate matter retained by the cheesecloth is resuspended in enough physiological buffer to return it to the original volume of the rumen fluid, and this suspension is strained again. The buffer used has the following composition: The two filtrates are combined and allowed to stand until particulate matter separates to the top. The clear layer is separated, diluted with the same buffer (1:1) and then adjusted to pH 7.0. The diluted rumen fluid (10 ml.) is placed in a 25-ml flask with 40 mg. of the above-described feed, an additional 5 mg. of soybean protein, and the test compound. Four replicate flasks are used per treatment. Two sets of four control flasks each are also employed. A zero-time control and an incubated 16-hour control are used. All test flasks are incubated for 16 hours at 38° C. After incubation, 25 percent metaphosphoric acid (2 ml.) is added to each flask. The samples are allowed to settle, and the supernatant is analyzed by gas chromatography for propionate, acetate, and butyrate compounds. Test compound results are statistically compared with control results.
# dairy cows = conditions: all administration rates evaluated; cited from earlier work
# [2] = molar percentage of ruminal VFA, 17 days
# [3] = 0.1 mcg per ml diluted rumen fluid
# [4] = 0.3 mcg per ml diluted rumen fluid
# [5] = 1.0 mcg per ml diluted rumen fluid
Structure (SMILES),"Butyric acid, Increase Relative to Control (Ruminal VFA) [%]","Propionic acid, Increase Relative to Control (Ruminal VFA) [%]","Butyric acid, Change from Control (Ruminal VFA; control 11.1)","Propionic acid, Change from Control (Ruminal VFA; control 26.2)",% Butyric Acid Conc. (Ruminal VFA; [2]) [%],% Propionic Acid Conc. (Ruminal VFA; [2]) [%],"Acetate, ratio of VFA concentration in treated flasks to control flasks [1, 3]","Butyrate, ratio of VFA concentration in treated flasks to control flasks [1, 3]","Propionate, ratio of VFA concentration in treated flasks to control flasks [1, 3]","Total VFA, ratio of concentration in treated flasks to control flasks [1, 3]","Acetate, ratio of VFA concentration in treated flasks to control flasks [1, 4]","Butyrate, ratio of VFA concentration in treated flasks to control flasks [1, 4]","Propionate, ratio of VFA concentration in treated flasks to control flasks [1, 4]","Total VFA, ratio of concentration in treated flasks to control flasks [1, 4]","Acetate, ratio of VFA concentration in treated flasks to control flasks [1, 5]","Butyrate, ratio of VFA concentration in treated flasks to control flasks [1, 5]","Propionate, ratio of VFA concentration in treated flasks to control flasks [1, 5]","Total VFA, ratio of concentration in treated flasks to control flasks [1, 5]",fat-corrected-milk production (dairy cows)
CC1=C\[C@@H](O)C[C@@H](O)Cc2nc(co2)C(=O)N[C@H](C)C(=O)O[C@H](C(C)C)[C@H](C)/C=C/C(=O)NC\C=C\1 [A-2315 Factor A],21.6,18.2,2.4,4.8,13.5,31.0,0.97,1.01,1.07,1.04,0.95,1.00,1.08,1.07,0.95,1.04,1.15,1.05,–
CC[C@@]1([C@@H]2O[C@@H]([C@H]3O[C@@](O)(CO)[C@H](C)C[C@@H]3C)C[C@@H]2C)CC[C@H]([C@]2(C)CC[C@]3(C[C@H](O)[C@@H](C)[C@@H]([C@@H](C)[C@@H](OC)[C@H](C)C(=O)O)O3)O2)O1 [Monensin],–,–,–,–,–,–,–,–,–,–,–,–,–,–,–,–,–,–,no different from that of non-treated control animals
